The record followed here is patent publication US8133898B2, “Renin inhibitors” (Takeda Pharmaceutical Company Limited, priority 2008, dated 2012).

pIC50: −log10 of the molar value.

The target of one experiment is T1, Recombinant human renin (Homo sapiens, UniProt P00797).
T1 construct: with trypsin, and isolate the active form (residues 67-406); made in house; host or cells: FreeStyle 293-F cells (transient expression of pcDNA3.1(+)/hREN)
T1 sequence (P00797 67-406): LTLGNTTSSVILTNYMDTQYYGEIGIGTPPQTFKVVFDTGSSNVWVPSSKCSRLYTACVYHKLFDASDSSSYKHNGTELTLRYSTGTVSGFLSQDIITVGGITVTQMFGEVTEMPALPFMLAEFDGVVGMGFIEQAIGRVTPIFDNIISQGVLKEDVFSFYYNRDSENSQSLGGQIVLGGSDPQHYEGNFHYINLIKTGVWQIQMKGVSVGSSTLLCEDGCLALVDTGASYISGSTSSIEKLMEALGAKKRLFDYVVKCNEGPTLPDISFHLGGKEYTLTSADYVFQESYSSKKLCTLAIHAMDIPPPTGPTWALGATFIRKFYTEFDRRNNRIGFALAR
The experiment can be described thus: in vitro enzymatic activity of renin inhibitors (fluorescence). The experiment is classed as biochemical. To be noted: fluorogenic peptide substrate. The text has this:
Test compounds in varying concentrations may be reacted with recombinant human renin in the presence of substrate, e.g., QXL520-γ-Abu-Ile-His-Pro-Phe-His-Leu-Val-Ile-His-Thr-Lys (HiLyteFluo488)-Arg-OH (Anaspec, San Jose, Calif.). The reaction can be followed kinetically using fluorescence (excitation λ=485 nm; emission λ=538 nm). Inhibition constants (IC50) may be calculated by non-linear curve fitting of the compound concentrations and fluorescence intensities to the standard IC50 equation.
Solutions of test compounds in varying concentrations (≦2 mM final concentration) are prepared in dimethyl sulfoxide (DMSO) and then diluted into assay buffer comprising 50 mM Hepes, 1 mM EDTA, 1 mM DTT, 0.1 mg/ml BSA, 0.01% Brij35, pH 7.4. Alternatively, the assay can be performed with a high BSA concentration, wherein the buffer contains an additional 2% BSA.
Recombinant human renin (3 nM final concentration) is added to the dilutions and pre-incubated with the compounds for 10 minutes at 37° C. As described in Examples A-C above, human renin can be obtained by expressing preprorenin (residue 1-406) in mammalian cells, treating the prorenin (residues 24-406) contained in the culture supernatant with trypsin, and isolate the active form (residues 67-406). After pre-incubation, the reaction is initiated with 1 μM of substrate QXL520-γ-Abu-Ile-His-Pro-Phe-His-Leu-Val-Ile-His-Thr-Lys (HiLyteFluo488)-Arg-OH (Anaspec, San Jose, Calif.). The final DMSO in the assay is 5%. The total volume of the reaction mixture is 20 μL, which can be placed on Greiner 384-well small volume plates.
Renin activity may be determined via fluorescence (excitation λ=485 nm; emission λ=538 nm), e.g., on a Molecular Devices SPECTROmax GEMINI XPS. The fluorescence intensity is determined upon the addition of substrate and determined again after incubation at 37° C. for one hour. The fluorescence intensity of a blank (no inhibition) using vehicle alone is also determined. Renin activity is linearly proportional to the change in fluorescence observed (final—initial).
The percent inhibition of renin at a given compound concentration is defined as: 100%×[1−(Fcompound/Fblank)] where Fcompound is the observed fluorescence at a given concentration of test compound and Fblank is the observed fluorescence in the presence of vehicle alone.
The pIC50 value (negative log of the molar concentration of the compound that produces 50% inhibition) of a test compound is calculated by non-linear least squares curve fitting of the equation: Percent Inhibition=100%/(1+(10−pIC50/10 log [I])) to percent inhibition versus compound concentration. The 50% inhibitory concentration (IC50) of a test compound is calculated by raising 10 to the negative pIC50 (10-pIC50).

Another experiment concerns the target Human DPP-IV (Homo sapiens, UniProt P27487). The experiment can be described thus: in vitro enzymatic activity of inhibitors against DPP-IV. The following applies: AP-AFC substrate. The experiment is classed as biochemical. How it is done: Solutions of test compounds in varying concentrations ([…]) were prepared in dimethyl sulfoxide (DMSO) and then diluted into assay buffer comprising: 20 mM Tris, pH 7.4; 20 mM KCl; and 0.1 mg/mL BSA. Human DPP-IV (0.1 nM final concentration) was added to the dilutions and pre-incubated for 10 minutes at ambient temperature before the reaction was initiated with A-P-7-amido-4-trifluoromethylcoumarin (AP-AFC; 10 μM final concentration). The total volume of the reaction mixture was 10-100 μL depending on assay formats used (384 or 96 well plates). The reaction was followed kinetically (excitation λ=400 nm; emission λ=505 nm) for 5-10 minutes or an end-point was measured after 10 minutes. Inhibition constants (IC50) were calculated from the enzyme progress curves using standard mathematical models.

Human DPP-IV, sequence (P27487 whole entry): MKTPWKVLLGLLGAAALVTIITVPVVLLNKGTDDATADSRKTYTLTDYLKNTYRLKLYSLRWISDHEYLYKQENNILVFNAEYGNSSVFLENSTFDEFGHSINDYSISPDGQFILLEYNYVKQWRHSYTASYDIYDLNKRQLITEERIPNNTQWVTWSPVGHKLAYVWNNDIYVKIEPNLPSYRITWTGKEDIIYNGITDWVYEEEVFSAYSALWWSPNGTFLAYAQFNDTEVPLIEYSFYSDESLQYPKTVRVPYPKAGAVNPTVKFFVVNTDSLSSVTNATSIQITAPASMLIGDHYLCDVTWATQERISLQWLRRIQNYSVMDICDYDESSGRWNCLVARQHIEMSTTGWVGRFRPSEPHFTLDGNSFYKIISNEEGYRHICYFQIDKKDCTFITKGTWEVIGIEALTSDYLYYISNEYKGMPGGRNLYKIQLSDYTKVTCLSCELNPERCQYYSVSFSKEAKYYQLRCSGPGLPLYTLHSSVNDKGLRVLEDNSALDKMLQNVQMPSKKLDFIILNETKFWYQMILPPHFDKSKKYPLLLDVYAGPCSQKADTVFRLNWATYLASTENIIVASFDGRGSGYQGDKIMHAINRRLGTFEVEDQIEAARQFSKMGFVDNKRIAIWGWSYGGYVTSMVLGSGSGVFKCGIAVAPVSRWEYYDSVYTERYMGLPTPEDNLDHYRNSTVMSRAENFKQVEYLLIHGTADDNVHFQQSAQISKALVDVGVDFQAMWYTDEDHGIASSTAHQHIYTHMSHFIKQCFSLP

On to `CC(=O)Nc1ccc(Sc2nc3c(c(-c4cc(F)ccc4Br)c2CN)c(=O)n(C)c(=O)n3C)cc1` [Compound 68, N-(4-(6-(aminomethyl)-5-(2-bromo-5-fluorophenyl)-1,3-dimethyl-2,4-dioxo-1,2,3,4-tetrahydropyrido[2,3-d]pyrimidin-7-ylthio)phenyl)acetamide], for which the pIC50 on Recombinant human renin was 4.00 to 5.00; against Human DPP-IV it was more than 6.00.
Turning to `Cn1c(=O)c2c(-c3nc4ccccc4s3)c(CN)c(NCc3ccc4ccccc4c3)nc2n(C)c1=O` [Compound 62, 6-(Aminomethyl)-5-(benzo[d]thiazol-2-yl)-1,3-dimethyl-7-(naphthalen-2 ylmethylamino)pyrido[2,3-d]pyrimidine-2,4(1H,3H)-dione], the pIC50 on Recombinant human renin and on Human DPP-IV was less than 4.00 in each case.
For `Cn1c(=O)c2c(-c3cccc(F)c3)c(CN)c(NCc3ccc4ccccc4c3)nc2n(C)c1=O` [Compound 90, 6-(Aminomethyl)-5-(3-fluorophenyl)-1,3-dimethyl-7-(naphthalen-2-ylmethylamino)pyrido[2,3-d]pyrimidine-2,4(1H,3H)-dione], the pIC50 on Recombinant human renin and against Human DPP-IV was 5.00 to 6.00 each time.
For `Cn1c(=O)c2c(-c3cc(F)ccc3Br)c(CN)c(NC(Cc3ccccc3)c3ccccc3)nc2n(C)c1=O` (stereo not drawn) [Compound 91, 6-(Aminomethyl)-5-(2-bromo-5-fluorophenyl)-7-(1,2-diphenylethylamino)-1,3-dimethylpyrido[2,3-d]pyrimidine-2,4(1H,3H)-dione], the pIC50 on Recombinant human renin was 5.00 to 6.00; against Human DPP-IV it was more than 6.00.
With `Cn1c(=O)c2c(-c3ccc(CN)cc3)c(CN)c(N)nc2n(C)c1=O` [Compound 66, 7-Amino-6-(aminomethyl)-5-(4-(aminomethyl)phenyl)-1,3-dimethylpyrido[2,3-d]pyrimidine-2,4(1H,3H)-dione], the negative-log IC50 (pIC50) was 4.00 to 5.00 at Recombinant human renin and less than 4.00 against Human DPP-IV.
In the case of `CCOc1cc(OCC)cc(-c2c(CN)c(NCc3ccc4ccccc4c3)nc3c2c(=O)n(C)c(=O)n3C)c1` [Compound 56, 6-(Aminomethyl)-5-(3,5-diethoxyphenyl)-1,3-dimethyl-7-(naphthalen-2-ylmethylamino)pyrido[2,3-d]pyrimidine-2,4(1H,3H)-dione], the pIC50 on Recombinant human renin and against Human DPP-IV was less than 4.00 in each case.
On to `CCCOc1ccc(OCCC)c(CNc2nc3c(c(-c4ccc(Cl)cc4Cl)c2CN)c(=O)n(C)c(=O)n3C)c1` [Compound 84, 6-(aminomethyl)-5-(2,4-dichlorophenyl)-7-(2,5-dipropoxybenzylamino)-1,3-dimethylpyrido[2,3-d]pyrimidine-2,4(1H,3H)-dione], for which the results for the pIC50 at Recombinant human renin and on Human DPP-IV were less than 4.00 and 5.00 to 6.00, respectively.
With `COc1ccc(F)cc1-c1c(CN)c(NCc2ccc3ccccc3c2)nc2c1c(=O)n(C)c(=O)n2C` [Compound 70, 6-(aminomethyl)-5-(5-fluoro-2-methoxyphenyl)-1,3-dimethyl-7-(naphthalen-2-ylmethylamino)pyrido[2,3-d]pyrimidine-2,4(1H,3H)-dione], the negative-log IC50 (pIC50) at Recombinant human renin is 5.00 to 6.00; against Human DPP-IV it was more than 6.00.
Taken in the same sequence, the figures for `CCCOc1ccc(OCCC)c(-c2c(CN)c(NCc3ccc4ccccc4c3)nc3c2c(=O)n(C)c(=O)n3C)c1` [Compound 65, 6-(Aminomethyl)-5-(2,5-dipropoxyphenyl)-1,3-dimethyl-7-(naphthalen-2-ylmethylamino)pyrido[2,3-d]pyrimidine-2,4(1H,3H)-dione] were 4.00 to 5.00 and less than 4.00.
The corresponding values for `COc1ccc(F)cc1-c1c(CN)c(NCc2ccccc2C(F)(F)F)nc2c1c(=O)n(C)c(=O)n2C` [Compound 87, 6-(Aminomethyl)-5-(5-fluoro-2-methoxyphenyl)-1,3-dimethyl-7-(2-(trifluoromethyl)benzylamino)pyrido[2,3-d]pyrimidine-2,4(1H,3H)-dione] are 5.00 to 6.00 and more than 6.00.
Taken in the same sequence, the figures for `CC(C)COc1ccc(Cl)cc1-c1c(CN)c(NCc2ccc3ccccc3c2)nc2c1c(=O)n(C)c(=O)n2C` [Compound 88, 6-(Aminomethyl)-5-(5-chloro-2-isobutoxyphenyl)-1,3-dimethyl-7-(naphthalen-2-ylmethylamino)pyrido[2,3-d]pyrimidine-2,4(1H,3H)-dione] were 5.00 to 6.00 and 5.00 to 6.00.
Consider `COc1ccc(-c2c(CN)c(NCc3ccc4ccccc4c3)nc3c2c(=O)n(C)c(=O)n3C)cc1OC` [Compound 61, 6-(Aminomethyl)-5-(3,4-dimethoxyphenyl)-1,3-dimethyl-7-(naphthalen-2-ylmethylamino)pyrido[2,3-d]pyrimidine-2,4(1H,3H)-dione], for which the pIC50 on Recombinant human renin was 5.00 to 6.00; against Human DPP-IV it was 4.00 to 5.00.
Take `CCCOc1cc(OCCC)cc(-c2c(CN)c(NCc3ccc4ccccc4c3)nc3c2c(=O)n(C)c(=O)n3C)c1` [Compound 67, 6-(Aminomethyl)-5-(3,5-dipropoxyphenyl)-1,3-dimethyl-7-(naphthalen-2-ylmethylamino)pyrido[2,3-d]pyrimidine-2,4(1H,3H)-dione]: the pIC50 was 4.00 to 5.00 on Recombinant human renin and less than 4.00 on Human DPP-IV.
Take `COc1cc(OC)cc(-c2c(CN)c(NCc3cccc(-n4cccc4)c3)nc3c2c(=O)n(C)c(=O)n3C)c1` [Compound 85, 7-(3-(1H-pyrrol-1-yl)benzylamino)-6-(aminomethyl)-5-(3,5-dimethoxyphenyl)-1,3-dimethylpyrido[2,3-d]pyrimidine-2,4(1H,3H)-dione]: the pIC50 is 5.00 to 6.00 on Recombinant human renin and less than 4.00 against Human DPP-IV.
On to `Cn1c(=O)c2c(-c3cccc(OCc4cncs4)c3)c(CN)c(NCc3ccc4ccccc4c3)nc2n(C)c1=O` [Compound 79, 6-(aminomethyl)-1,3-dimethyl-7-(naphthalen-2-ylmethylamino)-5-(3-(thiazol-5-ylmethoxy)phenyl)pyrido[2,3-d]pyrimidine-2,4(1H,3H)-dione], for which the pIC50 on Recombinant human renin is 5.00 to 6.00; on Human DPP-IV, 4.00 to 5.00.
Taken in the same sequence, the figures for `Cn1c(=O)c2c(-c3ccccc3Oc3ccccc3)c(CN)c(NCc3ccc4ccccc4c3)nc2n(C)c1=O` [Compound 63, 6-(Aminomethyl)-1,3-dimethyl-7-(naphthalen-2-ylmethylamino)-5-(2-phenoxyphenyl)pyrido[2,3-d]pyrimidine-2,4(1H,3H)-dione] were 5.00 to 6.00 and 5.00 to 6.00.
Taken in the same sequence, the figures for `Cn1c(=O)c2c(-c3cccc4c3OC(C)(C)C4)c(CN)c(NCc3ccc4ccccc4c3)nc2n(C)c1=O` [Compound 59, 6-(Aminomethyl)-5-(2,2-dimethyl-2,3-dihydrobenzofuran-7-yl)-1,3-dimethyl-7-(naphthalen-2-ylmethylamino)pyrido[2,3-d]pyrimidine-2,4(1H,3H)-dione] were 5.00 to 6.00 and 4.00 to 5.00.
Taken in the same sequence, the figures for `CC(C)COc1cccc(-c2c(CN)c(N)nc3c2c(=O)n(C)c(=O)n3C)c1` [Compound 76, 7-amino-6-(aminomethyl)-5-(3-isobutoxyphenyl)-1,3-dimethylpyrido[2,3-d]pyrimidine-2,4(1H,3H)-dione] were less than 4.00 and 4.00 to 5.00.

The term pIC50 denotes −log10 of the IC50, conventionally taken in molar units.
